Structures can show the parent of a compound that is named as a salt.

In experiment [1] the target is T1, NLRP3 (Homo sapiens, UniProt Q96P20). The experiment can be described thus: Human whole blood IL-1β release assay (LPS + nigericin, AlphaLisa). Format: cell-based. The arrangement: Plate out 80 μl of whole blood containing 1 μg/ml of LPS; from tissue; host or cells: human whole blood from healthy donors. The following applies: human whole blood, 1 μg/ml LPS, 10 μM nigericin; IL-1β release; read-out: HWB IC50. The method, then:
For systemic delivery, the ability to inhibit NLRP3 when the compounds are present within the bloodstream is of great importance. For this reason, the NLRP3 inhibitory activity of a number of compounds in human whole blood was investigated in accordance with the following protocol.
Human whole blood in Li-heparin tubes was obtained from healthy donors from a volunteer donor panel. • 1. Plate out 80 μl of whole blood containing 1 μg/ml of LPS in 96-well, clear bottom cell culture plate (Corning #3585) • 2. Add 10 μl compound (8 points half-log dilution with 10 μM top dose) or vehicle (DMSO 0.1% FAC) to the appropriate wells • 3. Incubate for 3 hrs at 37° C., 5% CO2 • 4. Add 10 μl nigericin (Sigma #N7143) (10 μM FAC) to all wells • 5. Incubate for 1 hr at 37° C., 5% CO2 • 6. At the end of the incubation period, spin plates at 300×g for 5 mins to pellet cells and remove 20 μl of supernatant and add to 96-well v-bottom plates for IL-1β analysis (note: these plates containing the supernatants can be stored at −80° C. to be analysed at a later date) • 7. IL-1β was measured according to the manufacturer protocol (Perkin Elmer-AlphaLisa IL-1 Kit AL220F-5000) • 8. IC50 data is fitted to a non-linear regression equation (log inhibitor vs response-variable slope 4-parameters)
For orientation: In Alpha technology, singlet oxygen from a donor bead excites a nearby acceptor bead.

Experiment [2] deals with T1, NLRP3. Put plainly: THP-1 cells pyroptosis assay (LPS + nigericin, resazurin read-out). Format: cell-based. The settings on record: THP-1 cells, 1 μg/ml LPS, 5 μM nigericin; NLRP3 inhibitory activity; read-out: THP IC50. The arrangement: Seed THP-1 cells (25,000 cells/well) containing 1.0 μg/ml LPS; host or cells: THP-1 cells. The method, then:
THP-1 cells (ATCC #TIB-202) were grown in RPMI containing L-glutamine (Gibco #11835) supplemented with 1 mM sodium pyruvate (Sigma #S8636) and penicillin (100 units/ml)/streptomycin (0.1 mg/ml) (Sigma #P4333) in 10% Fetal Bovine Serum (FBS) (Sigma #F0804). The cells were routinely passaged and grown to confluency (˜10^6 cells/ml). On the day of the experiment, THP-1 cells were harvested and resuspended into RPMI medium (without FBS). The cells were then counted and viability (>90%) checked by Trypan blue (Sigma #T8154). Appropriate dilutions were made to give a concentration of 625,000 cells/ml. To this diluted cell solution was added LPS (Sigma #L4524) to give a 1 μg/ml Final Assay Concentration (FAC). 40 μl of the final preparation was aliquoted into each well of a 96-well plate. The plate thus prepared was used for compound screening.
The following method step-by-step assay was followed for compound screening. • 1. Seed THP-1 cells (25,000 cells/well) containing 1.0 μg/ml LPS in 40 μl of RPMI medium (without FBS) in 96-well, black walled, clear bottom cell culture plates coated with poly-D-lysine (VWR #734-0317) • 2. Add 5 μl compound (8 points half-log dilution, with 10 μM top dose) or vehicle (DMSO 0.1% FAC) to the appropriate wells • 3. Incubate for 3 hrs at 37° C., 5% CO2 • 4. Add 5 μl nigericin (Sigma #N7143) (FAC 5 μM) to all wells • 5. Incubate for 1 hr at 37° C., 5% CO2 • 6. At the end of the incubation period, spin plates at 300×g for 3 mins and remove supernatant • 7. Then add 50 μl of resazurin (Sigma #R7017) (FAC 100 μM resazurin in RPMI medium without FBS) and incubate plates for a further 1-2 hrs at 37° C. and 5% CO2 • 8. Plates were read in an Envision reader at Ex 560 nm and Em 590 nm • 9. IC50 data is fitted to a non-linear regression equation (log inhibitor vs response-variable slope 4-parameters)
Background: The colour change of resazurin is a common sign of viable cells or microbes.

T1 sequence (Q96P20 whole entry): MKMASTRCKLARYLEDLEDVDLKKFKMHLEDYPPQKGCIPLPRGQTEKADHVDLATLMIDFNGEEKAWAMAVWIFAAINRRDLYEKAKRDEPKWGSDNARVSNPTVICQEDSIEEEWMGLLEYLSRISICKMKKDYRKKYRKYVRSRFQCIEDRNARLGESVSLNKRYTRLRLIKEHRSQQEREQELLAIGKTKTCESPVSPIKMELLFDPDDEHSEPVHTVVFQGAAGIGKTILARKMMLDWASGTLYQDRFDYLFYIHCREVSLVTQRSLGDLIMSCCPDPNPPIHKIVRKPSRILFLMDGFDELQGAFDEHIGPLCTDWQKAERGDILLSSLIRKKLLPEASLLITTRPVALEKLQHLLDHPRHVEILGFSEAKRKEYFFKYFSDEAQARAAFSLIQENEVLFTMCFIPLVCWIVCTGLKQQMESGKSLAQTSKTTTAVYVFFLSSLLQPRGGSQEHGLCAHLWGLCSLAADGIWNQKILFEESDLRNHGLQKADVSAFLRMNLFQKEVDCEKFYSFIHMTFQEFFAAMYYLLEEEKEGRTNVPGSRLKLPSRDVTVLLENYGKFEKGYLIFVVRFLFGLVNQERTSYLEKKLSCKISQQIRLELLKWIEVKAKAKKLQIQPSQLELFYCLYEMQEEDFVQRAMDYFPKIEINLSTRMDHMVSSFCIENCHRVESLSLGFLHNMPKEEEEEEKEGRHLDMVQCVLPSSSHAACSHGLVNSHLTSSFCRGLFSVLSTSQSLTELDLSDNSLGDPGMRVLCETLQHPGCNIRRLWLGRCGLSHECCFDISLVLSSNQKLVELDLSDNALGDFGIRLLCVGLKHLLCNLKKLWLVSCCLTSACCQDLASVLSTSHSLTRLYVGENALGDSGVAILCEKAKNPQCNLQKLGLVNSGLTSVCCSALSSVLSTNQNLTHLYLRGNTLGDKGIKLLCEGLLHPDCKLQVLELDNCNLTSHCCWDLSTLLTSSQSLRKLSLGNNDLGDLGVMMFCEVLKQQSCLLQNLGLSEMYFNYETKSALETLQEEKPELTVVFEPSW

Usually IC50 stands for the concentration at which inhibition is half-maximal. Turning to `CCN(CC)CCNS(=O)(=O)NC(=O)Nc1c2c(cc3c1CCC3)CCC2` [Example 40, 3-(N-(2-(Diethylamino)ethyl)sulfamoyl))-1-(1,2,3,5,6,7-hexahydro-s-indacen-4-yl)urea, potassium salt], the IC50 in experiment [1] was less than 500 nM; in experiment [2], less than 1000 nM.
The matching figures for `CN1C[C@H]2C[C@@H]1CN2S(=O)(=O)NC(=O)Nc1c2c(cc3c1CCC3)CCC2` [Example 43, (1R,4R)—N-((1,2,3,5,6,7-Hexahydro-s-indacen-4-yl)carbamoyl)-5-methyl-2,5-diazabicyclo[2.2.1]heptane-2-sulfonamide, potassium salt]: less than 500 nM and less than 500 nM.
The like results for `CN1CCC(NS(=O)(=O)NC(=O)Nc2c3c(cc4c2CCC4)CCC3)C1` (stereo not drawn) [Example 44, 3-(N-(1-Methylpyrrolidin-3-yl))sulfamoyl)-1-(1,2,3,5,6,7-hexahydro-s-indacen-4-yl)urea, potassium salt] were, in that order, less than 500 nM and less than 1000 nM.
Turning to `C#CCCC1(CCNS(=O)(=O)NC(=O)Nc2c3c(cc4c2CCC4)CCC3)N=N1` [Example 45, 3-(N-(2-(3-(but-3-yn-1-yl)-3H-diazirin-3-yl)ethyl))sulfamoyl)-1-(1,2,3,5,6,7-hexahydro-s-indacen-4-yl)urea, potassium salt], the IC50 was less than 10000 nM in experiment [1] and less than 500 nM in experiment [2].
The matching figures for `O=C(Nc1c2c(cc3c1CCC3)CCC2)NS(=O)(=O)N1CC(N2CCC2)C1` [Example 46, N-((1,2,3,5,6,7-Hexahydro-s-indacen-4-yl)carbamoyl)-[1,3′-biazetidine]-1′-sulfonamide, potassium salt]: less than 5000 nM and less than 1000 nM.
Consider `CCN1CCC1CNS(=O)(=O)NC(=O)Nc1c2c(cc3c1CCC3)CCC2` (stereo not drawn) [Example 47, 3-(N-((1-Ethylazetidin-2-yl)methyl)sulfamoyl)-1-(1,2,3,5,6,7-hexahydro-s-indacen-4-yl)urea, potassium salt], for which the IC50 in experiment [1] and in experiment [2] was less than 1000 nM in each case.
Turning to `CCN(CC)C1CCN(S(=O)(=O)NC(=O)Nc2c3c(cc4c2CCC4)CCC3)C1` (stereo not drawn) [Example 49, 3-(3-((Diethylamino)pyrrolidine)-1-sulfamoyl)-1-(1,2,3,5,6,7-hexahydro-s-indacen-4-yl)urea, potassium salt], the IC50 in experiment [1] and in experiment [2] was less than 500 nM throughout.
`CC(C)N1CCC1CNS(=O)(=O)NC(=O)Nc1c2c(cc3c1CCC3)CCC2` (stereo not drawn) [Example 50, 3-(N-((1-Isopropylazetidin-2-yl)methyl)sulfamoyl)-1-(1,2,3,5,6,7-hexahydro-s-indacen-4-yl)urea, potassium salt]: the concentration for half-maximal inhibition (IC50) in experiment [1] and in experiment [2] was less than 500 nM each time.
For the compound `CN1CCCC(NS(=O)(=O)NC(=O)Nc2c3c(cc4c2CCC4)CCC3)C1` (stereo not drawn) [Example 52, 3-(N-(1-Methylpiperidin-3-yl)sulfamoyl)-1-(1,2,3,5,6,7-hexahydro-s-indacen-4-yl)urea, potassium salt], the IC50 in experiment [1] and in experiment [2] was less than 500 nM each time.
`CN(C)CCN(CCCc1ccccc1)S(=O)(=O)NC(=O)Nc1c2c(cc3c1CCC3)CCC2` [Example 58, 3-(N-(2-(Dimethylamino)ethyl)-N-(3-phenylpropyl)sulfamoyl)-1-(1,2,3,5,6,7-hexahydro-s-indacen-4-yl)urea, potassium salt]: the results for the IC50 in experiment [1] and in experiment [2] were less than 5000 nM and less than 500 nM, respectively.
`CCN1C2CCC1CN(S(=O)(=O)NC(=O)Nc1c3c(cc4c1CCC4)CCC3)C2` [Example 61, 8-Ethyl-N-((1,2,3,5,6,7-hexahydro-s-indacen-4-yl)carbamoyl)-3,8-diazabicyclo[3.2.1]octane-3-sulfonamide, potassium salt]: the IC50 in experiment [1] and in experiment [2] was less than 500 nM throughout.
On to `CCN1CC2CCC(C1)N2S(=O)(=O)NC(=O)Nc1c2c(cc3c1CCC3)CCC2` [Example 62, 3-Ethyl-N-((1,2,3,5,6,7-hexahydro-s-indacen-4-yl)carbamoyl)-3,8-diazabicyclo[3.2.1]octane-8-sulfonamide, potassium salt], for which the IC50 is less than 1000 nM in experiment [1] and less than 500 nM in experiment [2].
